Consider 35 molecules from US8232407B2, “Nitrogenous heterocyclic compounds with insecticidal activity, and the preparation and use thereof” (East China University of Science and Technology, priority 2008, dated 2012).

Data set [1] has as its system Aphis craccivoral. The data set can be described thus: Insecticidal activities to aphids, immersion method. The class given is in vivo. As to conditions: in vivo. The method, then:
(1): Insecticidal Activities to Aphids
Aphis (Aphis craccivoral), which belongs to Homoptera and has a piercing-sucking mouthpart, is a common insect for agricultural plant. Aphis craccivoral was tested by immersion method.
Procedure: exactly weighed various samples were independently added to N,N-dimethylformamide to form 10 g/L stock solutions. The stock solutions were diluted with 0.2 mL/L aqueous Triton X-100 solution to a concentration of 500 ppm. After stably sucking on bean sprout, the wingless adult aphis together with bean sprout were dipped into 500 ppm dilution, taken out after 5 seconds, and the excess dilution was sucked off with bibulous paper. The treated wingless adult aphis was incubated in clean vessel at a constant temperature of 23° C. Each concentration was repeated for 3 times and the control group was treated with 0.2mL/L aqueous Triton X-100 solution. The number of killed aphis was counted after 24 hours and the mortality was to calculated according to the following formula:
(§1) Mortality (%)=(the number of the survival aphis in control group−the number of the survival aphis in the treatment group)/the number of the survival aphis in control group×100%

Data set [2] concerns Nilaparvata lugens. Kind of data set: Insecticidal activities to plant hopper, spraying method. The class given is in vivo. The settings on record: in vivo. The method, then:
as §1
(2): Insecticidal Activities to Plant hopper
Plant hopper (Nilaparvata lugens), which belongs to Homoptera and has a piercing-sucking mouthpart, is a common insect for agricultural plant. Nilaparvata lugens was tested by spraying method.
Procedure: the test compound was exactly formulated with acetone to form solutions having concentrations of 500, 250, 100, 50, 25, 12.5, 6.25, 3.13, 1.57 and 0.79 ppm, respectively. Aqueous acetone solution was used as control. Each treatment was repeated for 3 tumblers (3 times). Two ml of solution was sprayed uniformly to each tumbler with a mini manual sprayer. 10 insects were introduced to every basin 6 hours before spraying. Three series of experiments were conducted. The number of killed insects was counted after 24 hours to calculate the mortality according to the above mentioned formula.

On to `CN=C(NCc1ccc(Cl)nc1)C(=Cc1ccoc1)[N+](=O)[O-]` [Compound 152], for which the “Aphis craccivoral Mortality (%) 500 ppm” value in data set [1] came out at 67%. For the same molecule, the “Nilaparvata lugens Mortality (%) 500 ppm” value in data set [2] is 64%.

As to `CN=C(NCc1ccc(Cl)nc1)C(=Cc1ccc([N+](=O)[O-])o1)[N+](=O)[O-]` [Compound 153], the “Aphis craccivoral Mortality (%) 500 ppm” value in data set [1] turned out to be 56%. Also, in data set [2], the “Nilaparvata lugens Mortality (%) 500 ppm” value stood at 87%.

`CN=C(NCc1ccc(Cl)nc1)C(=Cc1ccc(Cl)o1)[N+](=O)[O-]` [Compound 154]: the “Aphis craccivoral Mortality (%) 500 ppm” value in data set [1] was determined as 52%. Moreover, the “Nilaparvata lugens Mortality (%) 500 ppm” value in data set [2] stood at 65%. For the molecule `CN=C(NCc1ccc(Cl)nc1)C(=Cc1ccc(Br)o1)[N+](=O)[O-]` [Compound 155], the “Aphis craccivoral Mortality (%) 500 ppm” value in data set [1] was 67%. For the same molecule, the “Nilaparvata lugens Mortality (%) 500 ppm” value in data set [2] turned out to be 36%. Turning to `CN=C(NCc1ccc(Cl)nc1)C(=Cc1cccs1)[N+](=O)[O-]` [Compound 156], in data set [1], the “Aphis craccivoral Mortality (%) 500 ppm” value amounted to 89%. Also, the “Nilaparvata lugens Mortality (%) 500 ppm” value in data set [2] came out at 90%.

With `CN=C(NCc1ccc(Cl)nc1)C(=Cc1ccsc1)[N+](=O)[O-]` [Compound 157], in data set [1], the “Aphis craccivoral Mortality (%) 500 ppm” value turned out to be 100%. For the same molecule, the “Nilaparvata lugens Mortality (%) 500 ppm” value in data set [2] is 97%. `CN=C(NCc1ccc(Cl)nc1)C(=Cc1ccc([N+](=O)[O-])s1)[N+](=O)[O-]` [Compound 158]: the “Aphis craccivoral Mortality (%) 500 ppm” value in data set [1] came to 43%. The “Nilaparvata lugens Mortality (%) 500 ppm” value in data set [2] came to 43%.

On to `CN=C(NCc1ccc(Cl)nc1)C(=Cc1ccc(Cl)s1)[N+](=O)[O-]` [Compound 159], for which the “Aphis craccivoral Mortality (%) 500 ppm” value in data set [1] is 55%. Also, the “Nilaparvata lugens Mortality (%) 500 ppm” value in data set [2] worked out at 67%. For `CN=C(C(=Cc1ccco1)[N+](=O)[O-])N(C)Cc1ccc(Cl)nc1` [Compound 161], the “Aphis craccivoral Mortality (%) 500 ppm” value in data set [1] is listed as 100%. Besides, the “Nilaparvata lugens Mortality (%) 500 ppm” value in data set [2] is reported as 65%. Consider `CN=C(C(=Cc1ccoc1)[N+](=O)[O-])N(C)Cc1ccc(Cl)nc1` [Compound 162], for which, in data set [1], the “Aphis craccivoral Mortality (%) 500 ppm” value is 100%. Also, the “Nilaparvata lugens Mortality (%) 500 ppm” value in data set [2] is 100%. With `CN=C(C(=Cc1ccc([N+](=O)[O-])o1)[N+](=O)[O-])N(C)Cc1ccc(Cl)nc1` [Compound 163], the “Aphis craccivoral Mortality (%) 500 ppm” value in data set [1] worked out at 100%. Besides, in data set [2], the “Nilaparvata lugens Mortality (%) 500 ppm” value is reported as 100%. As for `CN=C(C(=Cc1ccc(Cl)o1)[N+](=O)[O-])N(C)Cc1ccc(Cl)nc1` [Compound 164], in data set [1], the “Aphis craccivoral Mortality (%) 500 ppm” value was 100%. The “Nilaparvata lugens Mortality (%) 500 ppm” value in data set [2] turned out to be 100%. In the case of `CN=C(C(=Cc1ccc(Br)o1)[N+](=O)[O-])N(C)Cc1ccc(Cl)nc1` [Compound 165], the “Aphis craccivoral Mortality (%) 500 ppm” value in data set [1] is 100%. For the same molecule, the “Nilaparvata lugens Mortality (%) 500 ppm” value in data set [2] was 100%. As to `CN=C(C(=Cc1cccs1)[N+](=O)[O-])N(C)Cc1ccc(Cl)nc1` [Compound 166], in data set [1], the “Aphis craccivoral Mortality (%) 500 ppm” value was determined as 98%. Further, the “Nilaparvata lugens Mortality (%) 500 ppm” value in data set [2] is 100%. Turning to `CN=C(C(=Cc1ccsc1)[N+](=O)[O-])N(C)Cc1ccc(Cl)nc1` [Compound 167], the “Aphis craccivoral Mortality (%) 500 ppm” value in data set [1] was 100%. In addition, the “Nilaparvata lugens Mortality (%) 500 ppm” value in data set [2] came to 100%. Regarding `CN=C(C(=Cc1ccc([N+](=O)[O-])s1)[N+](=O)[O-])N(C)Cc1ccc(Cl)nc1` [Compound 168], the “Aphis craccivoral Mortality (%) 500 ppm” value in data set [1] came out at 80%. Moreover, the “Nilaparvata lugens Mortality (%) 500 ppm” value in data set [2] came to 90%.

As for `CN=C(C(=Cc1ccc(Cl)s1)[N+](=O)[O-])N(C)Cc1ccc(Cl)nc1` [Compound 169], in data set [1], the “Aphis craccivoral Mortality (%) 500 ppm” value is 76%. Moreover, in data set [2], the “Nilaparvata lugens Mortality (%) 500 ppm” value amounted to 67%. For `CN=C(C(=Cc1ccc[nH]1)[N+](=O)[O-])N(C)Cc1ccc(Cl)nc1` [Compound 170], in that order: 89% and 34%. With `CCN=C(C(=Cc1ccoc1)[N+](=O)[O-])N(C)Cc1ccc(Cl)nc1` [Compound 171], the “Aphis craccivoral Mortality (%) 500 ppm” value in data set [1] is recorded as 93%. The “Nilaparvata lugens Mortality (%) 500 ppm” value in data set [2] is given as 100%. Consider `CCN=C(C(=Cc1ccc([N+](=O)[O-])o1)[N+](=O)[O-])N(C)Cc1ccc(Cl)nc1` [Compound 172], for which the “Aphis craccivoral Mortality (%) 500 ppm” value in data set [1] worked out at 96%. Moreover, in data set [2], the “Nilaparvata lugens Mortality (%) 500 ppm” value is 100%. On to `CCN=C(C(=Cc1ccc(Cl)o1)[N+](=O)[O-])N(C)Cc1ccc(Cl)nc1` [Compound 173], for which the “Aphis craccivoral Mortality (%) 500 ppm” value in data set [1] worked out at 87%. Further, the “Nilaparvata lugens Mortality (%) 500 ppm” value in data set [2] worked out at 85%.

Consider `CCN=C(C(=Cc1ccc(Br)o1)[N+](=O)[O-])N(C)Cc1ccc(Cl)nc1` [Compound 174], for which the “Aphis craccivoral Mortality (%) 500 ppm” value in data set [1] turned out to be 100%. Further, the “Nilaparvata lugens Mortality (%) 500 ppm” value in data set [2] worked out at 100%.

With `CCN=C(C(=Cc1cccs1)[N+](=O)[O-])N(C)Cc1ccc(Cl)nc1` [Compound 175], the “Aphis craccivoral Mortality (%) 500 ppm” value in data set [1] is listed as 100%. In addition, the “Nilaparvata lugens Mortality (%) 500 ppm” value in data set [2] came to 100%.

With `CCN=C(C(=Cc1ccc([N+](=O)[O-])s1)[N+](=O)[O-])N(C)Cc1ccc(Cl)nc1` [Compound 176], the “Aphis craccivoral Mortality (%) 500 ppm” value in data set [1] is given as 86%. The “Nilaparvata lugens Mortality (%) 500 ppm” value in data set [2] is listed as 100%. In the case of `CCN=C(C(=Cc1ccc(Cl)s1)[N+](=O)[O-])N(C)Cc1ccc(Cl)nc1` [Compound 177], the “Aphis craccivoral Mortality (%) 500 ppm” value in data set [1] was 87%. The “Nilaparvata lugens Mortality (%) 500 ppm” value in data set [2] turned out to be 100%.

For the molecule `CCN=C(C(=Cc1ccc[nH]1)[N+](=O)[O-])N(C)Cc1ccc(Cl)nc1` [Compound 178], the “Aphis craccivoral Mortality (%) 500 ppm” value in data set [1] is recorded as 100%. In addition, the “Nilaparvata lugens Mortality (%) 500 ppm” value in data set [2] was 100%. For the molecule `CCN(Cc1ccc(Cl)nc1)C(=NC)C(=Cc1ccco1)[N+](=O)[O-]` [Compound 179], the “Aphis craccivoral Mortality (%) 500 ppm” value in data set [1] was found to be 100%. For the same molecule, in data set [2], the “Nilaparvata lugens Mortality (%) 500 ppm” value was found to be 100%. For the molecule `CCN(Cc1ccc(Cl)nc1)C(=NC)C(=Cc1ccoc1)[N+](=O)[O-]` [Compound 180], the “Aphis craccivoral Mortality (%) 500 ppm” value in data set [1] is reported as 100%. Besides, the “Nilaparvata lugens Mortality (%) 500 ppm” value in data set [2] was found to be 100%. Consider `CCN(Cc1ccc(Cl)nc1)C(=NC)C(=Cc1ccc([N+](=O)[O-])o1)[N+](=O)[O-]` [Compound 181], for which, in data set [1], the “Aphis craccivoral Mortality (%) 500 ppm” value turned out to be 100%. Also, the “Nilaparvata lugens Mortality (%) 500 ppm” value in data set [2] is 100%.

In the case of `CCN(Cc1ccc(Cl)nc1)C(=NC)C(=Cc1ccc(Cl)o1)[N+](=O)[O-]` [Compound 182], in data set [1], the “Aphis craccivoral Mortality (%) 500 ppm” value is 100%. Further, the “Nilaparvata lugens Mortality (%) 500 ppm” value in data set [2] was 100%.

As for `CCN(Cc1ccc(Cl)nc1)C(=NC)C(=Cc1ccc(Br)o1)[N+](=O)[O-]` [Compound 183], the “Aphis craccivoral Mortality (%) 500 ppm” value in data set [1] turned out to be 100%. Further, the “Nilaparvata lugens Mortality (%) 500 ppm” value in data set [2] came to 100%. As to `CCN(Cc1ccc(Cl)nc1)C(=NC)C(=Cc1cccs1)[N+](=O)[O-]` [Compound 184], the “Aphis craccivoral Mortality (%) 500 ppm” value in data set [1] stood at 98%. For the same molecule, in data set [2], the “Nilaparvata lugens Mortality (%) 500 ppm” value came out at 100%. For `CCN(Cc1ccc(Cl)nc1)C(=NC)C(=Cc1ccsc1)[N+](=O)[O-]` [Compound 185], in that order: 100% and 100%. For `CCN(Cc1ccc(Cl)nc1)C(=NC)C(=Cc1ccc([N+](=O)[O-])s1)[N+](=O)[O-]` [Compound 186], the “Aphis craccivoral Mortality (%) 500 ppm” value in data set [1] is 100%. Further, the “Nilaparvata lugens Mortality (%) 500 ppm” value in data set [2] is recorded as 100%. As to `CCN(Cc1ccc(Cl)nc1)C(=NC)C(=C(C)c1ccco1)[N+](=O)[O-]` [Compound 195], the “Aphis craccivoral Mortality (%) 500 ppm” value in data set [1] was 100%.
